From ChEMBL document CHEMBL4321848 (J Med Chem, 2019)

Columns and labels:
[1] = target: T1, Nicotinamide N-methyltransferase (Homo sapiens, UniProt P40261); assay: biochemical
T1 sequence (P40261 whole entry): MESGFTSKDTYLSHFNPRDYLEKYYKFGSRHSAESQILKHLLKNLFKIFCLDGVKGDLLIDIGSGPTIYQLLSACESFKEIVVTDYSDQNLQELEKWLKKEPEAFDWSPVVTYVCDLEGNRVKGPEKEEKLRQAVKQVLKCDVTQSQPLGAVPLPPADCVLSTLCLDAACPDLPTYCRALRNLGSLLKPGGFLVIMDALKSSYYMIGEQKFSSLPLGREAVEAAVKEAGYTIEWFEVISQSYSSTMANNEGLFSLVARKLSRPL

[2] = target: T2, Phenylethanolamine N-methyltransferase (Homo sapiens, UniProt P11086); assay: Inhibition of human N-terminal His6 tagged PNMT using norepinephrine as substrate preincubated for 10 mins in presence of AdoMet followed by substrate addition by fluorescence based SAHH enzyme coupled assay
T2 sequence (P11086 whole entry): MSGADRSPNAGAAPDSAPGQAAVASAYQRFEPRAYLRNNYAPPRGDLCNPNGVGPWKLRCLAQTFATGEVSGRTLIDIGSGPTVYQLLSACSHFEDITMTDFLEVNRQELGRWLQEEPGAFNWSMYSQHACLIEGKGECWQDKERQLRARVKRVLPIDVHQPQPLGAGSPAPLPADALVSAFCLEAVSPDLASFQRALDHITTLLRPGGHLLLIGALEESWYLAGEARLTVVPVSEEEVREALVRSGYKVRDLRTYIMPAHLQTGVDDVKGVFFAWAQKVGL

Adenosylhomocysteinase = Adenosylhomocysteinase (Homo sapiens, UniProt P23526); assay: Inhibition of SAHH (unknown origin) using SAH as substrate preincubated for 10 mins followed by susbtrate addition by fluorescence based assay
Chain of Adenosylhomocysteinase (P23526 whole entry): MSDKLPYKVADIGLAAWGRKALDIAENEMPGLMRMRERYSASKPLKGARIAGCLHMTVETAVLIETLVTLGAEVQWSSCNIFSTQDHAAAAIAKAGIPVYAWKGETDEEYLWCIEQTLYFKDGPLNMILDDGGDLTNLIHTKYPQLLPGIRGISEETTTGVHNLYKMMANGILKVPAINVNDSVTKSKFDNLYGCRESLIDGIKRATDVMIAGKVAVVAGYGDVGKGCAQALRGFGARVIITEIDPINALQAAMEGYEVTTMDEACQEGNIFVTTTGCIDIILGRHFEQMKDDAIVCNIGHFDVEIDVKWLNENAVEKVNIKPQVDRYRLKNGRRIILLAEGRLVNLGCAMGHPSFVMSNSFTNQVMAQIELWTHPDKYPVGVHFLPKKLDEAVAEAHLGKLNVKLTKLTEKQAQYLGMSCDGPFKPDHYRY

[3] = Inhibition of Trypanosoma brucei PRMT7 expressed in Escherichia coli preincubated for 10 mins in presence of AdoMet followed by susbtrate addition by fluorescence based SAHH enzyme coupled assay
[4] = target: T3, Histone-lysine N-methyltransferase EHMT2 (Homo sapiens, UniProt Q96KQ7); assay: Inhibition of recombinant human G9a (913 to 1193 residues) expressed in Escherichia coli BL21-CodonPlus(DE3)-RIL using H3-21 peptide preincubated for 10 mins in presence of AdoMet followed by substrate addition by fluorescence based SAHH enzyme coupled assay
T3 sequence (Q96KQ7 whole entry): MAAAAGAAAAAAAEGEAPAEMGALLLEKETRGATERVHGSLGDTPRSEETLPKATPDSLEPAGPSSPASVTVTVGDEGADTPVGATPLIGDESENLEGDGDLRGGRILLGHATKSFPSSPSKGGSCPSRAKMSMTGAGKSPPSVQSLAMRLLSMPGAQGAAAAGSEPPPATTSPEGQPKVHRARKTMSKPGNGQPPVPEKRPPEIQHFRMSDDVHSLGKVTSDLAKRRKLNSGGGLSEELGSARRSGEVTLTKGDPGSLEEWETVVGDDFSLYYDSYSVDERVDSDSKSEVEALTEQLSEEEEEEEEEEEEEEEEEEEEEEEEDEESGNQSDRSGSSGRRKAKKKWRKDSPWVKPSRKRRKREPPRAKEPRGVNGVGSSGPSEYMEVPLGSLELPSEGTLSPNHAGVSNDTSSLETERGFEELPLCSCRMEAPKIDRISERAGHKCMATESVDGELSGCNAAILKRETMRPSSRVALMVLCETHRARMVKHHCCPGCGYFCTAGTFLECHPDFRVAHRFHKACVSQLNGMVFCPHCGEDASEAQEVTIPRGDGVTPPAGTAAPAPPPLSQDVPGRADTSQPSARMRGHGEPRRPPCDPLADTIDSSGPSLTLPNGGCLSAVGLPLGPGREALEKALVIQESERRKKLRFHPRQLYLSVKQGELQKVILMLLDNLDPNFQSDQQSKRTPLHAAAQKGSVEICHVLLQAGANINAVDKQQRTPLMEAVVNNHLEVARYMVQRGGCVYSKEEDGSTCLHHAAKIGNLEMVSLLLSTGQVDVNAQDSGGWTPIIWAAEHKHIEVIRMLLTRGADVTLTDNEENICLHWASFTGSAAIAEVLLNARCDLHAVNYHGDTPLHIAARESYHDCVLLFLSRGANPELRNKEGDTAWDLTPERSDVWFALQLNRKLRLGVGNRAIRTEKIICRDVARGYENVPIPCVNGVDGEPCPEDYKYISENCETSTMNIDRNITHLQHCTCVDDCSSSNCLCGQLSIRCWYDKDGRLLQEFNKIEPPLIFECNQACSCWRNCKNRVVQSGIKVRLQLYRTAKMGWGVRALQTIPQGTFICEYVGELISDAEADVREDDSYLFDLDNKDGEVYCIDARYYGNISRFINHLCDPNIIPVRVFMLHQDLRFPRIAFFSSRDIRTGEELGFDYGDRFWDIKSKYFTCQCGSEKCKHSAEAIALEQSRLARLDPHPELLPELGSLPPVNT

[5] = target: T4, N-terminal Xaa-Pro-Lys N-methyltransferase 1 (Homo sapiens, UniProt Q9BV86); assay: Inhibition of NTMT1 (unknown origin) using GPKRIA peptide as substrate preincubated for 10 mins in presence of AdoMet followed by susbtrate addition by fluorescence based SAHH enzyme coupled assay
T4 sequence (Q9BV86 whole entry): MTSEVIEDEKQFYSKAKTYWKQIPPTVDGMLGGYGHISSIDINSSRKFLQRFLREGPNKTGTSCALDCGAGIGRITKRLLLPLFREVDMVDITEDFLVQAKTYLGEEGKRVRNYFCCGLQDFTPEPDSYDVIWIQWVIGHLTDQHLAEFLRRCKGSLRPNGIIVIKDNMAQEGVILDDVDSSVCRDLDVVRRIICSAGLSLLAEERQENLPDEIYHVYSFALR

[6] = target: T5, Histone-lysine N-methyltransferase SETD7 (Homo sapiens, UniProt Q8WTS6); assay: Inhibition of recombinant human His-tagged SETD7 (1 to 366 residues) expressed in Escherichia coli using H3-21 peptide as susbtrate preincubated for 10 mins in presence of AdoMet followed by substrate addition by fluorescence based SAHH enzyme coupled assay
T5 sequence (Q8WTS6 whole entry): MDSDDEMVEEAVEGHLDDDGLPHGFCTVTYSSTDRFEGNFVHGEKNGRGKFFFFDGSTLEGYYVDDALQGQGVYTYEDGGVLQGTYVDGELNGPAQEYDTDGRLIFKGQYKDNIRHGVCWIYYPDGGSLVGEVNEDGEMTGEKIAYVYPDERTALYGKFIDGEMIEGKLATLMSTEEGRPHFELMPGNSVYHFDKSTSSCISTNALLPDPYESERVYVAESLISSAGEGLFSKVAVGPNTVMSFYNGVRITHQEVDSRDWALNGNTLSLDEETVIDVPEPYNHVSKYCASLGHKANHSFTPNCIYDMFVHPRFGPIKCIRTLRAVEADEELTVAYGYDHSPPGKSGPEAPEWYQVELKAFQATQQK

[7] = target: Protein arginine N-methyltransferase 1 (Rattus norvegicus, UniProt Q63009); assay: Inhibition of recombinant rat His-tagged PRMT1 expressed in Escherichia coli BL21(DE3) cells using H4-21 peptide as susbtrate preincubated for 10 mins in presence of AdoMet followed by substrate addition by fluorescence based SAHH enzyme coupled assay
Chain of Protein arginine N-methyltransferase 1 (Q63009 whole entry): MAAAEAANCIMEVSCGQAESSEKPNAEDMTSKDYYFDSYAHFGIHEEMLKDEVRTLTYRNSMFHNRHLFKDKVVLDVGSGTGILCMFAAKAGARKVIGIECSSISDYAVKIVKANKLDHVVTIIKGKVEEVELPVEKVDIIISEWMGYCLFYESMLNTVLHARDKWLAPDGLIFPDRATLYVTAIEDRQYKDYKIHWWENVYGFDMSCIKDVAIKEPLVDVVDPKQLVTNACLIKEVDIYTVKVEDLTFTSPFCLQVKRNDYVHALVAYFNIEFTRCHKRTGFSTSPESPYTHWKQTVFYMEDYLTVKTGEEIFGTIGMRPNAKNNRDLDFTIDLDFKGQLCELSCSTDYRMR

[8] = target: Indolethylamine N-methyltransferase (Homo sapiens, UniProt O95050); assay: Inhibition of human N- terminal His6 tagged human INMT expressed in Escherichia coli BL21-CodonPlus(DE3)-RIL using tryptamine as substrate preincubated for 10 mins in presence of AdoMet followed by substrate addition by fluorescence based SAHH enzyme coupled assay
Chain of Indolethylamine N-methyltransferase (O95050 whole entry): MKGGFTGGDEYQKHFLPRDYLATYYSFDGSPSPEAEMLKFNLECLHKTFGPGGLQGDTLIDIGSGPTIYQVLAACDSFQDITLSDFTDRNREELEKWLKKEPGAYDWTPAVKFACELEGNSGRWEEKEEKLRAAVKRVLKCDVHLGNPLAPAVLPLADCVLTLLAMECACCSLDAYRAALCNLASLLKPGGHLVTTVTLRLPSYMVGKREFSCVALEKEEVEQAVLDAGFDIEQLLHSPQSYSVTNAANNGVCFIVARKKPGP

Ki [1]	SMILES	other results
0.043 µM	NC(=O)c1cccc(CCCN(CC[C@H](N)C(=O)O)C[C@H]2O[C@@H](n3cnc4c(N)ncnc43)[C@H](O)[C@@H]2O)c1	–
0.54 µM	NC(=O)c1cccc(CCCCN(CCC[C@H](N)C(=O)O)C[C@H]2O[C@@H](n3cnc4c(N)ncnc43)[C@H](O)[C@@H]2O)c1	–
0.052 µM	COc1ccc(C(N)=O)cc1C#CCN(CC[C@H](N)C(=O)O)C[C@H]1O[C@@H](n2cnc3c(N)ncnc32)[C@H](O)[C@@H]1O	–
–	NC(=O)c1cccc(C#CCN(CC[C@H](N)C(=O)O)C[C@H]2O[C@@H](n3cnc4c(N)ncnc43)[C@H](O)[C@@H]2O)c1	IC50 [2]: > 100 µM; IC50 (Adenosylhomocysteinase): > 3.7 µM; IC50 [3]: > 33 µM; IC50 [4]: > 100 µM; IC50 [5]: > 33 µM; IC50 [6]: > 100 µM; IC50 [7]: > 100 µM; IC50 [8]: > 100 µM
4 µM	Nc1ncnc2c1ncn2[C@@H]1O[C@H](CN(CCCc2ccc3ccccc3c2)CC[C@H](N)C(=O)O)[C@@H](O)[C@H]1O	–
27.3 µM	Nc1ncnc2c1ncn2[C@@H]1O[C@H](CN(CCc2ccc3ccccc3c2)CC[C@H](N)C(=O)O)[C@@H](O)[C@H]1O	–
3 µM	NC(=O)c1cccc(C#CCNC[C@H]2O[C@@H](n3cnc4c(N)ncnc43)[C@H](O)[C@@H]2O)c1	–
0.016 µM	Cc1ccc(C#CCN(CC[C@H](N)C(=O)O)C[C@H]2O[C@@H](n3cnc4c(N)ncnc43)[C@H](O)[C@@H]2O)cc1C(N)=O	–
1.1 µM	Nc1ncnc2c1ncn2[C@@H]1O[C@H](CN(CCCc2cccc3ccccc23)CCC[C@H](N)C(=O)O)[C@@H](O)[C@H]1O	–
0.15 µM	Cc1ccc(C(N)=O)cc1CCCN(CC[C@H](N)C(=O)O)C[C@H]1O[C@@H](n2cnc3c(N)ncnc32)[C@H](O)[C@@H]1O	–
3 µM	NC(=O)c1cccc(CCCN(CCC[C@H](N)C(=O)O)C[C@H]2O[C@@H](n3cnc4c(N)ncnc43)[C@H](O)[C@@H]2O)c1	–
0.051 µM	Cc1ccc(CCCN(CC[C@H](N)C(=O)O)C[C@H]2O[C@@H](n3cnc4c(N)ncnc43)[C@H](O)[C@@H]2O)cc1C(N)=O	–
0.84 µM	NC(=O)c1cccc(CCCCN(CC[C@H](N)C(=O)O)C[C@H]2O[C@@H](n3cnc4c(N)ncnc43)[C@H](O)[C@@H]2O)c1	–
33.3 µM	Nc1ncnc2c1ncn2[C@@H]1O[C@H](CN(CCCc2ccc3ccccc3c2)CCC[C@H](N)C(=O)O)[C@@H](O)[C@H]1O	–
28 µM	COC(=O)c1cccc(CCCN(CC[C@H](N)C(=O)O)C[C@H]2O[C@@H](n3cnc4c(N)ncnc43)[C@H](O)[C@@H]2O)c1	–
11.8 µM	Nc1ncnc2c1ncn2[C@@H]1O[C@H](CN(CCCc2cccc3ccccc23)CC[C@H](N)C(=O)O)[C@@H](O)[C@H]1O	–

SMILES	Ki [1]	other results
NC(=O)c1cccc(CCN(CC[C@H](N)C(=O)O)C[C@H]2O[C@@H](n3cnc4c(N)ncnc43)[C@H](O)[C@@H]2O)c1	10 µM	–
NC(=O)c1ccccc1 [BENZAMIDE]	> 100 µM	–
